Target: T1, SARS-CoV-2 3CL^pro (Severe acute respiratory syndrome coronavirus 2, UniProt P0DTD1)
T1 construct: gene rep
Assay: fluorogenic peptide cleavage assay, continuous
Type: biochemical

COc1c(-c2ccc(O)c(O)c2)oc2cc(O)cc(O)c2c1=O [3-O-methylquercetin]
IC50: 43.9 µM
